In patent publication US20210284742A1, “METHODS OF TREATING OR PREVENTING MUCORMYCOSIS” (University of Maryland, Baltimore, priority 2018, published 2021) one finds R. oryzae-induced damage and L. corymbifera-induced damage data, which are given here for 1 molecule.

Molecules are shown by their SMILES.

The test system of experiment [1] is A549 cells infected with R. oryzae. As to the kind of experiment: R. oryzae-induced damage of A549 cells (LDH assay). The class given is cell-based, human. The settings on record: 25 μM Mifepristone overnight and/or 25 μM Gefitinib 1 h, 24 h infection (FIG. 14). On the procedure:
R. delemar-induced A549 cell damage was quantified using the Pierce LDH assay, with slight modifications to the manufacturer's protocol. Briefly, A549 cells were grown in 96-well tissue culture plates for 18 to 24 h. […] For controls, host cells were incubated with the appropriate amount of diluent used to reconstitute the in parallel. After 24 h of incubation at 37° C., 50 μl of the cell culture supernatant was collected from uninfected, infected, and fungus-only control wells and transferred to a 96-well plate to assay for LDH activity. Lysis buffer was added to all infected wells, and the mixture was incubated for 45 min at 37° C. After lysis, 50 μl of cell culture supernatant was transferred to a 96-well plate and used for the LDH assay kit per the protocol. LDH release was calculated as follows: % cytotoxicity=[(experimental release−fungal cell spontaneous control−host cell spontaneous control)/(host cell maximum control−fungal cell maximum control−host cell spontaneous control)]×100. LDH is a cytosolic enzyme but will be released into the cell culture medium upon cell membrane damage. The amount of extracellular LDH is proportional to the amount of cell damage.

In experiment [2] the test system is A549 cells infected with L. corymbifera. In words: L. corymbifera-induced damage of A549 cells (LDH assay). The format is cell-based, human. Particulars: 25 μM Mifepristone overnight and/or 25 μM Gefitinib 1 h, 24 h infection (FIG. 14).

In the case of `COc1cc2ncnc(Nc3ccc(F)c(Cl)c3)c2cc1OCCCN1CCOCC1` [Gefitinib], the R. oryzae-induced damage result in experiment [1] is reported as “significantly decreased”. Besides, the L. corymbifera-induced damage result in experiment [2] was “significantly decreased”.
